From patent US20020019527A1 (priority 2000, published 2002) come the findings set out here.

Where a name gives a salt, the structure may show the parent alone. Read-outs that look alike come from different tables or passages of the source.

The term inhibition denotes how much of the control response was suppressed. A word on the % Inhibition: it is how much of the control response was suppressed. Read a low % Inhibition as a weak effect.

The assay deals with T1, Farnesyltransferase (FTase) (Bos taurus, UniProt P29702+P49355).
T1 construct: precipitation from a beef brain homogenate; from tissue; host or cells: bovine brain
Kind of assay: Farnesyltransferase inhibition (scintillation proximity assay, [3H]-FPP / biotin-K-ras peptide). Type of assay: biochemical, bovine. In outline: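 Bovine brain FTase, partially purified by 30–50% saturated ammonium sulfate precipitation and DEAE Sepharose chromatography, separated from GGTase I/II. Scintillation proximity read-out of [3H]-FPP transfer to biotin-K-ras peptide, counted 1 h after quench. Compounds added from ethanol with 10-fold dilution into assay.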
(In general: Scintillation proximity formats need no separation of bound from free tracer.)

The mark [1] stands for this setting: compound at 10^−6 M, bovine FTase, 37° C., 30 minutes.

T1 sequence (P49355 whole entry, one chain of several): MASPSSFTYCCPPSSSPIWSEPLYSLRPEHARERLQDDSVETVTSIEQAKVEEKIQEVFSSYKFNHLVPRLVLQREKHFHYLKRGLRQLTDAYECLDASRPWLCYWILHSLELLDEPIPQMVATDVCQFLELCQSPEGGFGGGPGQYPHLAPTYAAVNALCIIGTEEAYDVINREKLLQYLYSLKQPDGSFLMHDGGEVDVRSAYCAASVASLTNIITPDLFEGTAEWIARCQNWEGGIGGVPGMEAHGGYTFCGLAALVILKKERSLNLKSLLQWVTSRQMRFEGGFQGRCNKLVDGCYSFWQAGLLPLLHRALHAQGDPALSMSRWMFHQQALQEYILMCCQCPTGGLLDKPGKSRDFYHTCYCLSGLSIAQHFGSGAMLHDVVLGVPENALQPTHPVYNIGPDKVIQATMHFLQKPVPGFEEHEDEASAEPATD

For `COc1ccc(C(C)=O)cc1COC(c1ccc(C#N)c(-c2ccccc2C)c1)c1cncn1C` (stereo not drawn) [Example 170, 5-(((5-acetyl-2-methoxybenzyl)oxy)(1-methyl-1H-imidazol-5-yl)methyl)-2′-methyl(1,1′-biphenyl)-2-carbonitrile hydrochloride], the inhibition at 1 µM under setting [1] was 85%.

In turn, `Cc1cc(C)cc(COC(c2ccc(C#N)c(-c3ccccc3C)c2)c2cncn2C)c1` (stereo not drawn) [Example 140, 5-(((3,5-dimethylbenzyl)oxy)(1-methyl-1H-imidazol-5-yl)methyl)-2′-methyl(1,1′-biphenyl)-2-carbonitrile hydrochloride] showed an inhibition at 1 µM under setting [1] of 94%.

As to `Cn1cncc1C(NCc1ccc(C(=O)O)cc1)c1ccc(C#N)c(-c2cccc3ccccc23)c1` (stereo not drawn) [Example 39, lithium 4-((((4-cyano-3-(1-naphthyl)phenyl)(1-methyl-1H-imidazol-5-yl)methyl)amino)methyl)benzoate], 1 µM produced 100% inhibition under setting [1].

In the case of `Cn1cncc1CN(Cc1ccc(S(C)(=O)=O)cc1)Cc1ccc(C#N)c(-c2cccc3ccccc23)c1` [Example 195, 4-((((1-methyl-1H-imidazol-5-yl)methyl)(4-(methylsulfonyl)benzyl)amino)methyl)-2-(1-naphthyl)benzonitrile dihydrochloride], the inhibition at 1 µM under setting [1] was determined as 98%.

In the case of `COc1ccc([N+](=O)[O-])cc1COC(c1ccc(C#N)c(-c2ccccc2C)c1)c1cncn1C` (stereo not drawn) [Example 122, 5-(((2-methoxy-5-nitrobenzyl)oxy)(1-methyl-1H-imidazol-5-yl)methyl)-2′-methyl(1,1′-biphenyl)-2-carbonitrile hydrochloride], under setting [1], the inhibition at 1 µM was determined as 94%.

As to `N#Cc1ccc(COC(c2ccc(C#N)c(-c3cccc4ccccc34)c2)c2cn(C(c3ccccc3)(c3ccccc3)c3ccccc3)cn2)cc1` (stereo not drawn) [Example 49, 4-(((4-cyanobenzyl)oxy)(1-trityl-1H-imidazol-4-yl)methyl)-2-(1-naphthyl)benzonitrile], 1 µM produced 62% inhibition under setting [1].

In turn, `Cc1ccccc1-c1cc(C(OCc2ccccc2Cl)c2cncn2C)ccc1C#N` (stereo not drawn) [Example 132, 5-(((2-chlorobenzyl)oxy)(1-methyl-1H-imidazol-5-yl)methyl)-2′-methyl(1,1′-biphenyl)-2-carbonitrile hydrochloride] showed an inhibition at 1 µM under setting [1] of 94%.

`COC(=O)c1cccc(COC(c2ccc(C#N)c(-c3ccccc3C)c2)c2cncn2C)c1` (stereo not drawn) [Example 146, methyl 3-(((6-cyano-2′-methyl(1,1′-biphenyl)-3-yl)(1-methyl-1H-imidazol-5-yl)methoxy)methyl)benzoate hydrochloride] had an inhibition at 1 µM under setting [1] of 93%.

On to `Cn1cncc1CN(Cc1ccc(OC(F)(F)F)cc1)Cc1ccc(C#N)c(-c2cccc3ccccc23)c1` [Example 41, 4-((((1-methyl-1H-imidazol-5-yl)methyl)(4-(trifluoromethoxy)benzyl)amino)methyl)-2-(1-naphthyl)benzonitrile dihydrochloride], for which 1 µM produced 100% inhibition under setting [1].

Molecule `CN(Cc1cncn1C)c1ccc(C#N)c(-c2cccc3ccccc23)c1` [Example 227, 4-(methyl((1-methyl-1H-imidazol-5-yl)methyl)amino)-2-(1-naphthyl)benzonitrile] had an inhibition at 1 µM under setting [1] of 100%.

The molecule `Cc1ccccc1-c1cc(C(OCc2ccc(C(N)=O)cc2)c2cncn2C)ccc1C#N` (stereo not drawn) [Example 188, 4-(((6-cyano-2′-methyl(1,1′-biphenyl)-3-yl)(1-methyl-1H-imidazol-5-yl)methoxy)methyl)benzamide] had an inhibition at 1 µM under setting [1] of 92%.

As for `Cc1ccccc1-c1cc(C(OCc2ccc(F)cc2C(F)(F)F)c2cncn2C)ccc1C#N` (stereo not drawn) [Example 141, 5-(((4-fluoro-2-(trifluoromethyl)benzyl)oxy)(1-methyl-1H-imidazol-5-yl)methyl)-2′-methyl(1,1′-biphenyl)-2-carbonitrile hydrochloride], the inhibition at 1 µM under setting [1] stood at 95%.

`Cn1cncc1C(OCc1ccc(C#N)cc1)c1ccc(C#N)c(-c2ccccc2C(=O)O)c1` (stereo not drawn) [Example 205, 2′-cyano-5′-(((4-cyanobenzyl)oxy)(1-methyl-1H-imidazol-5-yl)methyl)(1,1′-biphenyl)-2-carboxylic acid]: under setting [1], the inhibition at 1 µM was 90%.

Take `Cc1ccccc1-c1cc(C(OCc2cccc(Br)c2)c2cncn2C)ccc1C#N` (stereo not drawn) [Example 184, 5-(((3-bromobenzyl)oxy)(1-methyl-1H-imidazol-5-yl)methyl)-2′-methyl(1,1′-biphenyl)-2-carbonitrile hydrochloride]: the inhibition at 1 µM under setting [1] was found to be 95%.

In turn, `Cc1cc(COC(c2ccc(C#N)c(-c3ccccc3C)c2)c2cncn2C)c(C#N)cc1C#N` (stereo not drawn) [Example 144, 4-(((6-cyano-2′-methyl(1,1′-biphenyl)-3-yl)(1-methyl-1H-imidazol-5-yl)methoxy)methyl)-6-methylisophthalonitrile hydrochloride] showed an inhibition at 1 µM under setting [1] of 96%.

`Cc1ccccc1-c1cc(C(OCc2ccccc2C#N)c2cncn2C)ccc1C#N` (stereo not drawn) [Example 126, 5-(((2-cyanobenzyl)oxy)(1-methyl-1H-imidazol-5-yl)methyl)-2′-methyl(1,1′-biphenyl)-2-carbonitrile hydrochloride] came in with an inhibition at 1 µM under setting [1] of 92%.

Regarding `Cc1ccccc1-c1cc(C(Oc2ccccc2)c2cncn2C)ccc1C#N` (stereo not drawn) [Example 4, 2′-methyl-5-((1-methyl-1H-imidazol-5-yl)(phenoxy)methyl)(1,1′-biphenyl)-2-carbonitrile hydrochloride], under setting [1], testing at 1 µM gave an inhibition of 88%.

For `Cn1cncc1CN(Cc1ccc(C#N)cc1)C(=O)c1ccc(C#N)c(-c2cccc3cccnc23)c1` [Example 206, 4-cyano-N-(4-cyanobenzyl)-N-((1-methyl-1H-imidazol-5-yl)methyl)-3-(8-quinolinyl)benzamide], 1 µM produced 88% inhibition under setting [1].

Take `Cn1cncc1C(OCc1ccc(C#N)cc1)c1ccc(C#N)c(I)c1` (stereo not drawn) [Example 60, 4-(((4-cyanobenzyl)oxy)(1-methyl-1H-imidazol-5-yl)methyl)-2-iodobenzonitrile hydrochloride]: under setting [1], testing at 1 µM gave an inhibition of 96%.

Under setting [1], `N#Cc1ccc(N(Cc2ccccc2)Cc2cnc[nH]2)cc1-c1cccc2ccccc12` [Example 265, 4-(benzyl(1H-imidazol-5-ylmethyl)amino)-2-(1-naphthyl)benzonitrile] displayed an inhibition at 1 µM of 100%.

Molecule `Cc1cccc(-c2cc(C(OCc3ccccc3)c3cncn3C)ccc2C#N)c1` (stereo not drawn) [Example 91, 5-((benzyloxy)(1-methyl-1H-imidazol-5-yl)methyl)-3′-methyl(1,1′-biphenyl)-2-carbonitrile hydrochloride] had an inhibition at 1 µM under setting [1] of 94%.

In the case of `Cc1ccccc1-c1cc(N(Cc2ccc(C#N)cc2)Cc2cncn2C)ccc1C#N` [Example 229, 5-((4-cyanobenzyl)((1-methyl-1H-imidazol-5-yl)methyl)amino)-2′-methyl(1,1′-biphenyl)-2-carbonitrile], under setting [1], the inhibition at 1 µM is 100%.

In the case of `Cc1ccccc1-c1cc(C(OCc2ccc(Cl)cc2)c2cncn2C)ccc1C#N` (stereo not drawn) [Example 133, 5-(((4-chlorobenzyl)oxy)(1-methyl-1H-imidazol-5-yl)methyl)-2′-methyl(1,1′-biphenyl)-2-carbonitrile hydrochloride], at 1 µM the inhibition under setting [1] was 97%.

Turning to `Cc1ccccc1-c1cc(C(O)(C#Cc2ccccc2)c2cncn2C)ccc1C#N` (stereo not drawn) [Example 109, 5-(1-hydroxy-1-(1-methyl-1H-imidazol-5-yl)-3-phenyl-2-propynyl)-2′-methyl(1,1′-biphenyl)-2-carbonitrile], the inhibition at 1 µM under setting [1] turned out to be 100%.

Under setting [1], `Cc1ccccc1-c1cc(C(NCc2ccc(C#N)cc2)c2cncn2C)ccc1C#N` (stereo not drawn) [Example 25, 5-(((4-cyanobenzyl)amino)(1-methyl-1H-imidazol-5-yl)methyl)-2′-methyl(1,1′-biphenyl)-2-carbonitrile] registered an inhibition at 1 µM of 100%.

Regarding `Cc1ccccc1-c1cc(C(OCc2ccc(Cl)cc2Cl)c2cncn2C)ccc1C#N` (stereo not drawn) [Example 157, 5-(((2,4-dichlorobenzyl)oxy)(1-methyl-1H-imidazol-5-yl)methyl)-2′-methyl(1,1′-biphenyl)-2-carbonitrile hydrochloride], the inhibition at 1 µM under setting [1] amounted to 97%.

`Cn1cncc1C(NCc1ccc(C#N)c(Cl)c1)c1ccc(C#N)c(-c2cccc3ccccc23)c1` (stereo not drawn) [Example 35, 4-(((3-chloro4-cyanobenzyl)amino)(1-methyl-1H-imidazol-5-yl)methyl)-2-(1-naphthyl)benzonitrile dihydrochloride] had an inhibition at 1 µM under setting [1] of 100%.

`Cc1ccccc1-c1cc(CNC(c2ccc(C#N)c(-c3ccccc3C)c2)c2cncn2C)ccc1C#N` (stereo not drawn) [Example 26]: the “% Inhibition at 10^−6M” value under setting [1] worked out at 100%.

Consider `CN(Cc1ccc(C#N)cc1)C(c1ccc(C#N)c(-c2cccc3ccccc23)c1)c1cncn1C` (stereo not drawn) [Example 29, 4-(((4-cyanobenzyl)(methyl)amino)(1-methyl-1H-imidazol-5-yl)methyl)-2-(1-naphthyl)benzonitrile], for which 1 µM produced 100% inhibition under setting [1].

Consider `Cc1ccccc1-c1cc(C(OCc2ccc(C(F)(F)F)cc2)c2cncn2C)ccc1C#N.Cl` (stereo not drawn) [Example 139], for which the “% Inhibition at 10^−6M” value came to 97%.

`Cl.Cl.Cn1cncc1C(OCc1ccc(C(F)(F)F)c(F)c1)c1ccc(C#N)c(-c2cccc3cccnc23)c1` (stereo not drawn) [Example 241, 4-(((3-fluoro-4-(trifluoromethyl)benzyl)oxy)(1-methyl-1H-imidazol-5-yI)methyl)-2-(8-quinolinyl)benzonitrile dihydrochloride]: the “% Inhibition at 10^−6M” value under setting [1] is on record as 98%.

As to `Cc1ccccc1-c1cc(C(NC2CCN(C(=O)c3ccccc3)CC2)c2cncn2C)ccc1C#N` (stereo not drawn) [Example 16, 5-(((1-benzoyl-4-piperidinyl)amino)(1-methyl-1H-imidazol-5-yl)methyl)-2′-methyl(1,1′-biphenyl)-2-carbonitrile dihydrochloride], under setting [1], 1 µM produced 100% inhibition.

`Cn1cncc1C(OCc1ccc(C#N)cc1)c1ccc(C#N)c(-c2cccc(Cl)c2Cl)c1` (stereo not drawn) [Example 279, 2′,3′-dichloro-5-(((4-cyanobenzyl)oxy)(1-methyl-1H-imidazol-5-yl)methyl)(1,1′-biphenyl)-2-carbonitrile hydrochloride] yielded an inhibition at 1 µM under setting [1] of 99%.
